The source of these data is patent publication US20160237302A1, “WATERBORNE COMPOSITIONS” (VICTORIA LINK LIMITED, priority 2013, published 2016).

Common to all, as to assay type: physicochemical
A short description of series [1]: Film formation of cast polyhydrazone material. The conditions noted are these: for Cast material: cast from water. Here is the method:
(§1) To a solution or dispersion of the polyketone (1 g in 5 mL of distilled water) is added hydrazide (0.9 stoichiometric equivalents of acyl hydrazide moiety compared to ketone functional group).

Series [2] in a line: Appearance of polyketone in water at 20% w/v. Here is the method: as §1
Series [3] can be described thus: Appearance of aqueous composition on hydrazide addition (polyhydrazone formation). Particulars: appearance in water; for Polyhydrazone from 0.9 eq Formula II-B addition / Polyhydrazone from 0.9 eq Formula II-C addition: polyketone 20% w/v; for Polyhydrazone from 0.9 eq ADH addition: polyketone 20% w/v + 0.9 eq ADH. Here is the method: as §1
Series [4] is described as follows: Glass transition temperature by DSC. The conditions noted are these: for Tg: polyhydrazone from polyketone + 0.9 eq ADH, DSC. Here is the method:
Glass transition temperatures (Tg) are measured by differential scanning calorimetry (DSC). Samples were prepared by compressing 2-20 mg of material into a 40 μL pierced aluminium pan and were scanned between −40° and +180° C. at either 10° C./min or 5° C./min. The samples were heated and cooled three times and Tg data were obtained from the second and third sweep; ignoring the initial annealing and desolvating sweep. Tg were determined by observation of the rate of change of slope and baseline shift for the glass and plastic states.
as §1
(In general: Differential scanning calorimetry records heat flow against a reference as temperature is scanned.)

Series [5] can be described thus: Appearance of aqueous composition on hydrazide addition (polyhydrazone formation). The conditions noted are these: water.
Series [6] is described as follows: Polyhydrazone formation in ACN, ACN/water, THF/water or water at 20-50% w/v. Particulars: appearance.
The mark [7] stands for this setting: polyhydrazone from polyketone + 0.9 eq ADH.
[8] abbreviates: polyhydrazone from (7) and formula II-C, cast film.

Each structure is given as a SMILES string.

Turning to `CC(=O)CCC(=O)OCCOC(=O)CCC(C)=O` [Polyketone compound (1), Ethyleneglycol Dilevulinate], the Cast material result in series [1] (setting [7]) is “Shiny soft well adhered”. In addition, the “Polyketone in water at 20% w/v” value in series [2] (1 g in 5 mL distilled water) and in series [2] (second table) was “Clear solution” each time. For the same compound, in series [3], the “Polyhydrazone from 0.9 eq Formula II-B addition” value is listed as “White precipitate”. Moreover, the “Polyhydrazone from 0.9 eq ADH addition” value in series [3] is reported as “Clear solution”. For the same compound, the “Polyhydrazone from 0.9 eq Formula II-C addition” value in series [3] (initially after hydrazide addition) is listed as “Clear solution”; in series [3] (subsequently after hydrazide addition) it was “precipitate forms”. For the same compound, the Tg in series [4] came to 37 °C.
Turning to `CC(=O)CCC(=O)OCCOCCOC(=O)CCC(C)=O` [Polyketone compound (2), Diethyleneglycol Dilevulinate], in series [1] (setting [7]), the “Time over which cast film hardened” value was “hardened over 5-days” and the Cast material entry is “Soft easily marked film that”. Besides, the “Polyketone in water at 20% w/v” value in series [2] (1 g in 5 mL distilled water) was “Clear solution”. In series [2] (second table), the “Polyketone in water at 20% w/v” value is reported as “Clear solution”. In series [3], the “Polyhydrazone from 0.9 eq Formula II-B addition” value is given as “Cloudy solution, gel”; the “Polyhydrazone from 0.9 eq Formula II-C addition” value is “Cloudy solution,”; the “Polyhydrazone from 0.9 eq ADH addition” value is recorded as “Clear solution”. The Tg in series [4] is 27 °C.
Regarding `CC(=O)CCC(=O)OCC(COC(=O)CCC(C)=O)OC(=O)CCC(C)=O` [Polyketone compound (3), Glycerol Trilevulinate], the Cast material result in series [1] (setting [7]) is “Hard shiny well adhered”. For the same compound, in series [2] (1 g in 5 mL distilled water), the “Polyketone in water at 20% w/v” value was “Unstable emulsion”. Besides, the “Polyhydrazone from 0.9 eq ADH addition” value in series [3] is listed as “Gels upon”. In addition, the Tg in series [4] turned out to be 60 °C.
For `CC(=O)CCC(=O)OCCN(CCOC(=O)CCC(C)=O)CCOC(=O)CCC(C)=O` [Polyketone compound (6), Triethanolamine Trilevulinate], in series [5], the “Polyhydrazone from 0.9 eq ADH addition, at higher concentrations” value is listed as “Gels at higher”. For the same compound, the “Polyketone in water at 20% w/v” value in series [2] (1 g in 5 mL distilled water) is recorded as “Clear solution”. In series [2] (second table), the “Polyketone in water at 20% w/v” value was “Clear solution”. In addition, in series [3], the “Polyhydrazone from 0.9 eq Formula II-B addition” value is “No reaction”, the “Polyhydrazone from 0.9 eq Formula II-C addition” value is “Forms white solid” and the “Polyhydrazone from 0.9 eq ADH addition” value is “Clear solution”. Besides, the Tg in series [4] was 38 °C.
For `CC(=O)CCC(=O)OC(C)C(C)OC(=O)CCC(C)=O` (stereo not drawn) [Polyketone compound (7), 2,3-Butanediol Dilevulinate], the “Cast film of polyhydrazone oil” value in series [1] (polyhydrazone from (7) and formula II-C) was “strong brittle film”. The Cast material entry in series [1] (setting [7]) is reported as “Hard film”. For the same compound, in series [2] (1 g in 5 mL distilled water), the “Polyketone in water at 20% w/v” value is “Unstable emulsion”. For the same compound, in series [6], the “Polyhydrazone from 0.9 eq ADH in ACN at 50% w/v” value is on record as “Pale yellow solid”, the “Polyhydrazone from 0.9 eq ADH in water at 50% w/v” value was “Pale yellow gel” and the “Polyhydrazone from 0.9 eq. Formula II-C in ACN at 50% w/v” value was “Yellow oil”. The “Polyhydrazone from 0.9 eq ADH addition” value in series [3] was “Opaque solution”. Also, in series [4] (setting [8]), the “Tg (annealed)” value was 20 °C and the “Tg (initial)” value was determined as 38.5 °C. The Tg in series [4] is 121 °C.
As for `CC(=O)CCC(=O)OCc1ccc(COC(=O)CCC(C)=O)cc1` [Polyketone compound (8), 1,4-Dimethanolbenzene Dilevulinate], in series [6], the “Polyhydrazone from 0.9 eq ADH in ACN at 50% w/v” value is on record as “Yellow oil formed” and the “Polyhydrazone from 0.9 eq ADH in water at 50% w/v” value is “Pale yellow gel”.
